This note sets out measurements from PubChem BioAssay AID179 (DTP/NCI, 2004).

The source made the active and inactive calls.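 The calls were made as follows: active = compounds giving half or more protection of infected cells from virus-caused growth loss, again on retest; inactive = the rest.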 Where a SMILES comes first, the peptide text is derived from it. Some results are limits rather than exact numbers.

The test system of the experiment is CEM cells HIV-1 protection, formazan growth assay. Kind of experiment: NCI AIDS Antiviral Assay. The note with it: for IC50: measured here: growth of uninfected CEM cells. In outline: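 Screen of anti-HIV-1 activity in human CEM cells using a formazan-based growth measurement at five drug concentrations. Hits with 50% or greater protection were repeated, and confirmation required reproducible complete protection.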

`COc1ccc(N2C(=O)C3c4[nH]c5ccc(OCc6ccccc6)cc5c4C4CCC(C(C)C)CC4C3C2=O)cc1` (stereo not drawn): the EC50 (commonly the midpoint of the concentration-response curve) was more than 100 µM and the IC50 (in general, the concentration that inhibits the measured activity by half) is more than 100 µM. As for `NC1=NC(=O)C(c2ccccc2)S1` (stereo not drawn), the EC50 was more than 676 µM and the IC50 was more than 676 µM. Regarding `CC(C)C1CN1CC(O)Cn1ccnc1[N+](=O)[O-]` (stereo not drawn), the EC50 was more than 200 µM and the IC50 was more than 200 µM.

As for `C/C(CCn1[nH]c(=O)ccc1=O)=N\NC(=O)C(=O)NN`, the EC50 was more than 1.95 µM and the IC50 was more than 1.95 µM. Turning to `CC(=O)Oc1cc(Cl)c(C)c2c1[C@H]1CC[C@]3(C)[C@@H](OC(C)=O)CC[C@H]3[C@@H]1CC2`, the EC50 is more than 126 µM and the IC50 was more than 126 µM. For the compound `C#C[C@]1(O)CC[C@H]2[C@@H]3C[C@@H](O)[C@]45CC4CC[C@]5(C)[C@H]3CC[C@@]21C` (stereo partly drawn), the EC50 is more than 200 µM and the IC50 stood at 72.4 µM.

Take `COC(=O)/C=C(\C(=O)OC)c1cc(C)c2cc(C(C)C)ccc(C)c1-2`: the EC50 was more than 200 µM and the IC50 turned out to be 28.2 µM. In the same order, the values of `CCCCN1C(CO)C(O)C(O)C(O)C1CO` (stereo not drawn) are more than 200 µM and more than 200 µM. In the same order, the values of `CCOC(=O)/C(=C/c1ccccc1)N(CC)CC` are more than 55 µM and more than 55 µM.

For the compound `CC(=O)/C(=C/N1CC(=O)NC1=S)C(=O)Nc1ccc([N+](=O)[O-])cc1`, the EC50 was more than 200 µM and the IC50 was 155 µM. `COC(=O)C1CSC(c2csc(CCN)n2)=N1` (stereo not drawn): the outcome was inactive. For the compound `CCCCCCCCCCCCCC(=O)CSCCNC(=O)CCNC(=O)[C@@H](O)C(C)(C)COP(=O)(O)OP(=O)(O)OCC1OC(n2cnc3c(N)ncnc32)C(O)C1OP(=O)(O)O` (stereo partly drawn), the result was inactive. As for `O=C(/C=C/c1ccccc1O)c1ccccc1Cl`, the EC50 was more than 38.9 µM and the IC50 is more than 38.9 µM.

Turning to `CSc1n[n+](C)cc(N)c1N`, the EC50 was more than 200 µM and the IC50 is 28.8 µM. Take `O=c1[nH]c(=O)c2c([nH]1)[nH]c1ccccc12`: the EC50 is more than 200 µM and the IC50 was more than 200 µM. With `Cc1cccc2c1C/C(=C1\CCc3c(C)cccc31)C2=O`, the outcome was inactive.

With `CC12CCC(=O)N1c1cc([N+](=O)[O-])ccc1N2` (stereo not drawn), the result was inactive. For the compound `CCCCCCCCCCCCCC/C=C\C(CC(=O)O)C(=O)O` (stereo not drawn), the EC50 is more than 15.1 µM and the IC50 is more than 15.1 µM. With `CC1(C)Oc2ccccc2OC1O` (stereo not drawn), the EC50 is more than 200 µM and the IC50 is more than 200 µM.

As to `CS(=O)(=O)OC[C@@H]1OCO[C@H]1COS(C)(=O)=O`, the EC50 was more than 200 µM and the IC50 is more than 200 µM. As for `COC1/C=C/OC2(C)Oc3c(C)c(O)c4c(O)c(c(C=NN5CCCCCCCCCCCC5)c(O)c4c3C2=O)NC(=O)/C(C)=C/C=C/C(C)C(O)C(C)C(O)C(C)C(OC(C)=O)C1C` (stereo not drawn), the result was inactive. The same measure, in the same setting: in the case of `c1ccc(C2=NOC3C4CCC(C4)C23)cc1` (stereo not drawn) it was “inactive”.

`Cc1cccc(C)c1NC(=O)C(=O)CC(=O)CO`: the EC50 is more than 724 µM and the IC50 was more than 724 µM. Turning to `COc1ccc2nc(NC(=O)C(=O)C(C#N)c3ccc(Cl)c(Cl)c3)sc2c1` (stereo not drawn), the outcome was inactive. For the compound `CCN(CC)Cc1cc(Nc2ccnc3ccc4nn(C)nc4c23)ccc1O`, the EC50 is more than 603 µM and the IC50 amounted to 15.8 µM. Regarding `CC(NC(=O)CNC(=O)C(N)CO)C(=O)NC(CCC(=O)O)C(=O)NC(CCCCN)C(=O)N1CCCC1C(=O)NC(CCC(=O)O)C(=O)NC(CCCCN)C(=O)NC(CCC(=O)O)C(=O)NC(CCCN=C(N)N)C(=O)NC(CO)C(=O)NC(Cc1ccc(O)cc1)C(=O)NC(C)C(=O)NC(Cc1cnc[nH]1)C(=O)NC(CO)C(=O)O` (stereo not drawn) (H-SGAEKPEKERSYAHS-OH; configuration not given here), the EC50 was more than 100 µM and the IC50 was more than 100 µM. For the compound `OC(CCN1CC2CCC(CC2)C1)(Cc1ccccc1)c1cccs1` (stereo not drawn), the EC50 was more than 200 µM and the IC50 was determined as 47.9 µM. In the case of `O=C(O)c1ccc(NC(NC(=O)C(C(F)(F)F)C(F)(F)F)(C(F)(F)F)C(F)(F)F)cc1`, the EC50 is more than 200 µM and the IC50 was more than 200 µM. Take `CSc1ncnc2c1ncn2CCC#N`: the EC50 was more than 200 µM and the IC50 is more than 200 µM.

Turning to `CSc1nc(NC2OC(COC(C)=O)C(OC(C)=O)C(OC(C)=O)C2OC(C)=O)c(N=CC=Nc2c(NC3OC(COC(C)=O)C(OC(C)=O)C(OC(C)=O)C3OC(C)=O)nc(SC)[nH]c2=O)c(=O)[nH]1` (stereo not drawn), the result was inactive. As to `CC(/C=C/c1ccc(N(C)C)cc1)=N\NC(=S)NCC(C)C`, the EC50 was more than 200 µM and the IC50 came to 29.5 µM. The corresponding values for `Cc1[nH]c(=O)[nH]c(=O)c1CO` are more than 200 µM and 105 µM. For the compound `COc1ccc(CNc2cnc3ccc(N)cc3n2)cc1`, the EC50 was more than 129 µM and the IC50 was determined as 77.6 µM. In the case of `O=C(CC1(O)C(=O)Nc2ccc([N+](=O)[O-])cc21)c1ccc(Br)cc1` (stereo not drawn), the EC50 is more than 41.7 µM and the IC50 was more than 41.7 µM. As for `CCOC(=O)[C@@H]1ON2O[C@H](OC3CCCC3(c3ccccc3)c3ccccc3)C[C@H]3OC(=O)[C@@H]1C32` (stereo partly drawn), the EC50 is more than 200 µM and the IC50 is 32.4 µM. In the case of `O=C1OC(=O)C2=C1CCc1ccccc12`, the outcome was inactive. Consider `Clc1ccc(-n2cnn3c(-c4ccccc4)ncc23)cc1`, for which the EC50 is more than 100 µM and the IC50 is more than 100 µM.

For the compound `COC(=O)c1ccccc1N=Cc1ccc(N(CCC#N)S(=O)(=O)c2ccccc2)cc1`, the EC50 is more than 562 µM and the IC50 was 479 µM. In the same order, the values of `CC(=O)OC1CCC2(COS(=O)(=O)c3ccc(C)cc3)C(=CCC3C2CCC2(C)C(C(C)CCCC(C)C)CCC32)C1` (stereo not drawn) are more than 200 µM and more than 200 µM. Consider `OC1C2CCN(CC2)C1CNC12CC3CC(CC(C3)C1)C2` (stereo not drawn), for which the EC50 was more than 1740 µM and the IC50 is 295 µM. In the same order, the values of `CCOC(=O)C1=C(C)C2C=C(c3cccs3)CC(c3ccc(Cl)cc3)=C2OC1=O` (stereo not drawn) are more than 200 µM and 91.2 µM. With `Cn1c(=O)c2nc3n(c2n(C)c1=O)C(=O)C(C#N)N=N3` (stereo not drawn), the EC50 was more than 200 µM and the IC50 was more than 200 µM. As to `COc1ccc(-c2cc3ccccc3[nH]c2=O)cc1OC`, the outcome was inactive.

Turning to `CC(=O)OCCn1c(Cc2ccc(Cl)cc2)nn(C(C)=O)c1=O`, the EC50 was more than 200 µM and the IC50 is more than 200 µM. As for `O=C1NC(O)CCN1C1OC(CO)C(O)C1O` (stereo not drawn), the EC50 was more than 200 µM and the IC50 was more than 200 µM. With `c1ccc(CN2CCCCC(Sc3ccccc3)CC2)cc1` (stereo not drawn), the EC50 is more than 43.7 µM and the IC50 amounted to 34.7 µM. The corresponding values for `Cc1ccc(C(=O)Nc2ccc(CP(=O)(O)O)cc2CP(=O)(O)O)cc1NC(=O)c1cccc(N)c1` are more than 200 µM and more than 200 µM. For `COc1ccc(-c2c(C(C)=O)c(C)n(C3OC(CO)C(O)C(O)C3O)c(=S)c2C#N)cc1` (stereo not drawn), the EC50 was more than 200 µM and the IC50 is 58.9 µM. The corresponding values for `CCC12C=CCN3CC[C@]4(C(=C(C(=O)OC)[C@@H]1Nc1ccn(C5OC(COC(C)=O)C(OC(C)=O)C5OC(C)=O)c(=O)n1)Nc1ccccc14)C32` (stereo partly drawn) are more than 26.9 µM and 3.63 µM.

Take `Cc1cc(C)nc(NS(=O)(=O)c2ccc(Nc3c4ccccc4nc4c(C(=O)NC(CO)(CO)CO)cccc34)cc2)n1`: the EC50 is more than 200 µM and the IC50 came out at 9.33 µM.

With `CC(NC(=O)C(N)CC(=O)O)NC(=O)N1CCOCC1` (stereo not drawn), the EC50 is more than 200 µM and the IC50 was more than 200 µM.

On to `Cc1cc(=O)oc2c(C)c3oc(CBr)c(Br)c3cc12`, for which the EC50 was more than 200 µM and the IC50 was 2.24 µM.

Take `Cc1c2ccc(Cl)cc2nc2ccc(OCCCCCCNC(=O)CCCN=C(N)N)cc12`: the EC50 was more than 50.1 µM and the IC50 stood at 22.9 µM. For the compound `O=c1oc2cc(O)ccc2c(O)c1C(c1ccccc1)c1c(O)c2ccc(O)cc2oc1=O`, the EC50 was more than 200 µM and the IC50 turned out to be 178 µM. Regarding `O=C1CC2(CCCC2)C(=O)N1c1cccc([N+](=O)[O-])c1`, the EC50 is more than 347 µM and the IC50 worked out at 275 µM. Consider `O=C(NC1C=Nc2ccc(Cl)cc2NC1=O)c1ccc2ccccc2c1` (stereo not drawn), for which the EC50 was more than 200 µM and the IC50 was more than 200 µM. For `C[CH2][Sn]([CH2]C)([O]C(=O)C(OC(C)=O)c1ccccc1)[O]C(=O)C(OC(C)=O)c1ccccc1` (stereo not drawn), the EC50 was more than 229 µM and the IC50 was 2.69 µM. In the case of `Nc1ncnc2nc(C3OC(CO)C(O)C3O)[nH]c12` (stereo not drawn), the EC50 is more than 70.8 µM and the IC50 is more than 70.8 µM. For the compound `C=C1CC2CC(=O)C(O)C(C1)C2` (stereo not drawn), the EC50 is more than 200 µM and the IC50 was more than 200 µM.

With `Cc1ccc(C)n1C1CCOC1=O` (stereo not drawn), the result was inactive.

As to `O=c1cc[nH]c(=O)n1C1CCC(CO)O1` (stereo not drawn), the EC50 was more than 200 µM and the IC50 is more than 200 µM. For `Cc1c(-c2ccc(-c3ccccc3F)cc2)nc2ccc(F)cc2c1C(=O)O`, the EC50 was more than 631 µM and the IC50 is 0.2 µM. For `CN1C(=O)/C(=C2\SC(=O)N(CNc3ccc(Br)cc3)C2=O)c2ccccc21`, the EC50 is more than 200 µM and the IC50 worked out at 15.5 µM. The corresponding values for `O=Cc1ccccc1OCCC[P+](c1ccccc1)(c1ccccc1)c1ccccc1` are more than 200 µM and 2.51 µM. In the same order, the values of `COC(=O)C(Cc1ccc2c(c1)CCCC2)Cc1cc2c(cc1C(O)OC)CCC2` (stereo not drawn) are more than 200 µM and 55 µM. In the same order, the values of `COC(=O)/C=C/c1cc(=O)n2c(nc3ccccc32)s1` are more than 200 µM and more than 200 µM.

As for `COc1ccc(/C=C/c2nc(=S)[nH][nH]2)cc1`, the EC50 is more than 214 µM and the IC50 is more than 214 µM. Regarding `OC1(CCc2ccccc2)COC(C(F)(F)F)(C(F)(F)F)C1` (stereo not drawn), the EC50 was more than 200 µM and the IC50 is more than 200 µM.

Turning to `C=CCn1c(=N)/c(=C(\N)O)s/c1=C1/SC(=S)N(c2ccc(C)cc2)C1=O`, the EC50 was more than 6.76 µM and the IC50 is more than 6.76 µM.

In the case of `Cc1cc(C)c2c(c1N)C(=O)CCO2`, the result was inactive.
